The values below come from ChEMBL document CHEMBL1140141 (J Nat Prod, 2008).

The target in one data set is hERG (KCNH2) (Homo sapiens, UniProt Q12809). Briefly: Inhibition of human ERG at 10 uM.
Data set [1] addresses T1, Alpha-1D adrenergic receptor (Homo sapiens) (UniProt P25100).
T1 sequence (whole entry): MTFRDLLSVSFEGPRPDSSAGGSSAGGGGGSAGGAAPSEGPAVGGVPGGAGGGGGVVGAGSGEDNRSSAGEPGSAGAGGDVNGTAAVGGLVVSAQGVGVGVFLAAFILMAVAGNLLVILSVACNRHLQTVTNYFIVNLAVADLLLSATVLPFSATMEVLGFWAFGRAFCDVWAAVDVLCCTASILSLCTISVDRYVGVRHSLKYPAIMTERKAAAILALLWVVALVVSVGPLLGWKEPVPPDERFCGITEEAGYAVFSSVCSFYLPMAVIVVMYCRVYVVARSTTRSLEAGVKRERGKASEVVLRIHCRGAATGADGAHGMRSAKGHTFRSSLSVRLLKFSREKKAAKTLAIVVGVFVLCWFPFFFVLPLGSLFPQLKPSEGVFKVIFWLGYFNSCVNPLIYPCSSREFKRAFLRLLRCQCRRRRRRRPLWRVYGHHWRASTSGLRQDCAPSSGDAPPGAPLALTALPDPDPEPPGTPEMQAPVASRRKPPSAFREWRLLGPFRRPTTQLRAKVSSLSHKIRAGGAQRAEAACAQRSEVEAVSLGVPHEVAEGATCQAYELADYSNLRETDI
To be noted: 10 uM.
Description: Inhibition of cloned adrenergic Alpha-1D receptor at 10 uM

In data set [2] the target is T2, Alpha-1D adrenergic receptor (Homo sapiens, UniProt P25100).
T2 sequence (P25100 whole entry): T1 sequence (whole entry)
Put plainly: Inhibition of cloned adrenergic Alpha-1D receptor.

In the next data set the target is Histamine H3 receptor (Rattus norvegicus, UniProt Q9QYN8). Briefly: Displacement of [3H]SMT from histamine H3 receptor in forebrain of rat. In general terms: In a radioligand displacement assay an active substance lowers the binding of a labelled ligand.
Another data set deals with Histamine H2 receptor (Cavia porcellus, UniProt P47747). Put plainly: Displacement of [125I]-APT from histamine H2 receptor in brain of guinea pig. Type of data set: tissue-based.
For data set [3], the target named is Histamine H3 receptor (Rattus norvegicus) (UniProt Q9QYN8). Particulars: 10 uM.
Description: Displacement of [3H]SMT from histamine H3 receptor in forebrain of rat at 10 uM
In data set [4] the target is T3, Alpha-2A adrenergic receptor (Homo sapiens, UniProt P08913).
T3 sequence (P08913 whole entry): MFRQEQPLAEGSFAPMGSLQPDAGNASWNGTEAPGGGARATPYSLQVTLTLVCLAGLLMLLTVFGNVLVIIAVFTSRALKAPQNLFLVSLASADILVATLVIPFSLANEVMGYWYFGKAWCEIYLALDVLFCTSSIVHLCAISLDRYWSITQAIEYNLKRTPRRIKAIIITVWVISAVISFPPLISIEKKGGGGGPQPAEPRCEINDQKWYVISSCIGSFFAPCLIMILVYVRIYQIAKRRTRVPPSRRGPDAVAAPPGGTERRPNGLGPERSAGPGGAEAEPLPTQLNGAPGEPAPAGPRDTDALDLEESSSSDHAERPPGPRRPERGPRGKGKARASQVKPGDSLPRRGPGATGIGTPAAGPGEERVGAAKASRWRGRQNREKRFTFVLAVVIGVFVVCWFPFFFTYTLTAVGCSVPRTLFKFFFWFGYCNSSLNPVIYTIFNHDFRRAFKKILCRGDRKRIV
Briefly: Displacement of [3H]MK912 from human cloned adrenergic alpha-2a receptor.

Data set [5] can be described thus: Inhibition of L-type calcium channel at 10 uM.
Data set [6] has as its target T4, Alpha-2A adrenergic receptor (Homo sapiens) (UniProt P08913).
T4 sequence (whole entry): T3 sequence (P08913 whole entry)
Briefly: Displacement of [3H]MK912 from human cloned adrenergic alpha-2a receptor at 10 uM.

SMILES strings stand for the structures. pIC50, pKi: −log10 of the molar value.

Chain of Histamine H2 receptor (P47747 whole entry, looked up): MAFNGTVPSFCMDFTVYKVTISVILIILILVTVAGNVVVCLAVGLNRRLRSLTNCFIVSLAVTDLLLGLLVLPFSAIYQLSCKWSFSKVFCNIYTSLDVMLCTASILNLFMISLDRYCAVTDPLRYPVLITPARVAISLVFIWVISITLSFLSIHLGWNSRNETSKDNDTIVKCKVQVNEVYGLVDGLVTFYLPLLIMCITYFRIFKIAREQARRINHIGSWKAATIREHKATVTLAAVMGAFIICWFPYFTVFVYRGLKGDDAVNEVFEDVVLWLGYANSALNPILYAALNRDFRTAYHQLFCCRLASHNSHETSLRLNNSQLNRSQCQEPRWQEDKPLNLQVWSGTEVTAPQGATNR
Chain of Histamine H3 receptor (Q9QYN8 whole entry): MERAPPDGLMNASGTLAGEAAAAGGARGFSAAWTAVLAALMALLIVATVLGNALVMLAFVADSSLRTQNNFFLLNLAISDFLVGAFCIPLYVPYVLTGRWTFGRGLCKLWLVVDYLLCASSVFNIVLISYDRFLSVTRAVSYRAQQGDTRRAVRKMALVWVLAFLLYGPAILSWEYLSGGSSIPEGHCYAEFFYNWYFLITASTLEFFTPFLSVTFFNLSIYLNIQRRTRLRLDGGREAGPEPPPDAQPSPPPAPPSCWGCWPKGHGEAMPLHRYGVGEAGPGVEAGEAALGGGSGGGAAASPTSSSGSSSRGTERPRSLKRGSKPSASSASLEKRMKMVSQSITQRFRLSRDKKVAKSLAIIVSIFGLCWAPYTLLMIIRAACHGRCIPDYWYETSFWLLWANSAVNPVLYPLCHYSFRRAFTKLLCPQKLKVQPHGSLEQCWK
Chain of hERG (KCNH2) (Q12809 whole entry): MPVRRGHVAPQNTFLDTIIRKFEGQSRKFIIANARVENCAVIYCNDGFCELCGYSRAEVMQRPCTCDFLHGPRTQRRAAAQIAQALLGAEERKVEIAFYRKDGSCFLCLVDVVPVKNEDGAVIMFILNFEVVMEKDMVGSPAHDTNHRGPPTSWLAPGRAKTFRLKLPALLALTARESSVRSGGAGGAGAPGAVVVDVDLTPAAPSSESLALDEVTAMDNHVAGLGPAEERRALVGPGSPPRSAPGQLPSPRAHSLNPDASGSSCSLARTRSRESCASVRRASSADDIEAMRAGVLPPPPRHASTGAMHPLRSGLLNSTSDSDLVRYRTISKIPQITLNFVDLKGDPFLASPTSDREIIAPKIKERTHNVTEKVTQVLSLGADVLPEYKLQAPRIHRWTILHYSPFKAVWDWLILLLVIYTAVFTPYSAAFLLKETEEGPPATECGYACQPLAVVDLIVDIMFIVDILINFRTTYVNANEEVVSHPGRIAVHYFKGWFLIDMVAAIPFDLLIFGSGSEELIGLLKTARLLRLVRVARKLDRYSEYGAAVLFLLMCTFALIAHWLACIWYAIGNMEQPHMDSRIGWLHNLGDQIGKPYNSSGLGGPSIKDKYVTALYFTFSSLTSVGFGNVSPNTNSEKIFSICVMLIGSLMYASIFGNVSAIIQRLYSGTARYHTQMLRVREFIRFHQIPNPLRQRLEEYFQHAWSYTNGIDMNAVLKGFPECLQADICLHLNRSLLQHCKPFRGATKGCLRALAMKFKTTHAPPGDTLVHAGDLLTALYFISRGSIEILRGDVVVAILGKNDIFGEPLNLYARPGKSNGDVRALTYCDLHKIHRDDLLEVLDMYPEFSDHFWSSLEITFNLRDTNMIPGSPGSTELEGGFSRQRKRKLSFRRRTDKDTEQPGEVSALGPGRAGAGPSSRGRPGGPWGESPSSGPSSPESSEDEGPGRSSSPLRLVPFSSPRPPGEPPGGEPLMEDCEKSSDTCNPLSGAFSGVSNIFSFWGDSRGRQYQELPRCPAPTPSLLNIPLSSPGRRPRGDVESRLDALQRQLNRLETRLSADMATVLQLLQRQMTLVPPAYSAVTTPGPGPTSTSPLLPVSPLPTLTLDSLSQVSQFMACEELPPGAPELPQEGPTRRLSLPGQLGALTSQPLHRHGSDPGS
Chain of Histamine H3 receptor (Rattus norvegicus) (Q9QYN8 whole entry): as the sequence (Q9QYN8 whole entry) above

As for `CN(C)CCCOc1ccc(CCNC(=O)c2cc(Br)c[nH]2)cc1Br` [DISPYRIN], the inhibition at 10 µM on hERG (KCNH2) was 50%. Further, the inhibition in data set [1] turned out to be 91%; in [3] it was 91%; in data set [5], 50%; in data set [6], 97%. Besides, the pIC50 in [2] was 6.25; at Histamine H3 receptor it was 5.63; on Histamine H2 receptor it was 5.90; in data set [4], 6.73. Further, the pKi in data set [2] was 6.56; on Histamine H3 receptor, 5.98; on Histamine H2 receptor it was 5.99; in data set [4], 7.16.

What is called inhibition is the share of the control response that was lost under treatment. For orientation: pIC50 means the negative decadic logarithm of the IC50, by convention in mol/L. The pKi is the negative decadic logarithm of the Ki, by convention in mol/L. A higher pKi goes with a small Ki.
